Structures can show the parent of a compound that is named as a salt.
Tests used:
[1] = tested on: ALS(SOD1^H46R) mice; assay: Histopathology, immunohistochemistry and Western blot of spinal cord, ventral root and muscle of treated ALS(SOD1^H46R) mice; format: in vivo, mouse
Protocol: At 21–22 weeks of age (late-symptomatic stage), mice were anesthetized with 2% isoflurane by inhalation. Anesthetized mice were transcardially perfused with physiological saline containing 10% heparin, followed by 4% paraformaldehyde (PFA) in 0.1 M phosphate buffer (PB) (pH 7.2). Spinal cord was removed, and lumbar segment was dissected.
For the preparation of paraffin-embedding tissue, lumbar segment was post-fixed with the same fixative for 48 h at 4°C and embedded in paraffin. Serial transverse sections (6 µm thickness) of lumbar segment (L4–L5) were sliced and stained with hematoxylin and eosin (H&E) for histopathological evaluation.
For the preparation of frozen-embedding tissue, lumbar segment was post-fixed with 4% PFA in 0.1 M PB (pH 7.2) for 24 h at 4°C, and then processed in 30% sucrose in 0.1 M PB (pH 7.2) containing 0.1% NaN3 for 96 h at 4°C (for cryoprotection) followed by frozen-embedding. Ten µm frozen sections were cut on a cryostat and used for fluorescent immunohistochemistry.
Immunohistochemical analyses with anti-ChAT, anti-Iba-1, anti-GFAP, anti-MAP2, anti-IL-1β and anti-8-OHdG antibodies were performed. For immunostaining with anti-ChAT antibody, the deparaffinized sections from late-symptomatic mice were pre-treated by autoclaving at 121°C for 5 min in HISTOFINE antigen retrieval solution (pH 9.0) (Nichirei). For immunostaining with anti-Iba-1 antibody, the deparaffinized sections from late-symptomatic mice were pre-treated by autoclaving at 121°C for 10 min in 10 mM citrate buffer (pH 6.0). For immunostaining with anti-GFAP antibody, the deparaffinized sections were used without any pretreatment. The sections were incubated with 0.3% H2O2 in methanol for 30 min and then with phosphate-buffered saline (PBS) (pH 7.2) containing 0.3% Triton X-100 for 30 min. After the treatment with PBS containing 5% normal goat serum (NGS) (Vector Laboratories)/0.05% Triton X-100 or 5% normal rabbit serum (NRS) (Vector Laboratories)/0.05% Triton X-100 for 1 h at room temperature, the sections were incubated with either anti-GFAP or anti-Iba-1 antibody in PBS containing 1.5% NGS/0.05% Triton X-100 or with anti-ChAT antibody in PBS containing 1.5% NRS/0.05% Triton X-100 overnight at 4°C. The sections were then incubated with HISTOFINE simple stain mouse MAX-PO (R) (Nichirei) or with HISTOFINE simple stain mouse MAX-PO (G) (Nichirei) for 1 hr at room temperature. The sections were visualized using 0.05% 3,3-diaminobenzidine tetrahydrochloride (DAB) (Wako) and 0.015% H2O2 in 50 mM Tris-HCl (pH 7.5) buffer, and the DAB reaction products were observed under a light microscope (BIOREVO BZ-9000, KEYENCE).
For double-immunostaining using frozen section, sections from late-symptomatic mice were washed with PBS, and treated with PBS containing 3% normal horse serum (NHS) (Vector Laboratories)/0.3% Triton X-100 for 1 h at room temperature. The sections were incubated with anti-IL-1β antibody in PBS containing 0.01% Triton X-100 for 48 h at 4°C, and then were incubated with CF^TM488A donkey anti-goat IgG (H+L) (1∶400, Biotium) in PBS containing 0.01% Triton X-100 for 1 h at room temperature. Next, the sections were incubated with anti-GFAP, anti-Iba-1 or anti-MAP2 antibody in PBS containing 0.01% Triton X-100 overnight at 4°C, and then were incubated with CF^TM555 goat anti-rabbit IgG (H+L) (1∶400, Biotium) in PBS containing 0.01% Triton X-100 for 1 h at room temperature. Fluorescent signals were observed under a light microscope (BIOREVO BZ-9000, KEYENCE).
For double-immunostaining of deparaffinized tissue, sections from late-symptomatic mice were pre-treated by autoclaving at 121°C for 10 min in 10 mM citrate buffer (pH 6.0). After the treatment with PBS containing 5%NGS/0.05% Triton X-100, the sections were incubated with anti-8-OHdG and anti-GFAP, anti-Iba-1 or anti-MAP2 antibodies in PBS containing 1.5% NGS/0.05% Triton X-100 overnight at 4°C. […]

[2] = Water solubility (stated property); format: physicochemical
[3] = tested on: total GSH in differentiated SH-SY5Y cells; assay: Measurement of intracellular glutathione (GSH/GSSG-Glo); format: cell-based, human; details: 1–20 µM, 8 h
Protocol: Differentiated SH-SY5Y cells were treated with various concentrations of WN1316 (1–20 µM) or vehicle control (DMSO). After 8 h incubation, the cellular oxidized (GSSG) and reduced glutathione (GSH) levels were measured using the GSH/GSSG-Glo™ Assay kit (Promega) according to the manufacturer’s instructions. GSH and GSSG levels were normalized to protein concentrations.

[4] = tested on: NAIP in THP-1 cells; assay: Western blot of NAIP in THP-1 cells; format: cell-based, human; details: 1 to 16 µM, 24 h
Protocol: Human monocytic leukemia cell line THP-1 (ATCC, TIB-202) was cultured in RPMI-1640 (Wako) supplemented with 10% fetal bovine serum, 100 U/ml penicillin, and 100 µg/ml streptomycin at 37°C in 5% CO2. Approximately 1×10^5 cells, which were pretreated with 1 to 16 µM WN1316 or DMSO in the presence or absence of 1 mM NAC for 24 h, were plated on a 96-well plate and exposed to 80 µM menadione for 16 h. Cell viability was measured by AlamarBlue assay. For Western blotting, cell lysates were prepared by using M-PER mammalian protein extraction reagent (Thermo scientific) according to standard procedure.

[5] = Complexing with protein in rat serum; format: in vitro ADME; details: rat sera, unpublished data
[6] = Complexing with protein in human serum; format: in vitro ADME; details: human sera, unpublished data

Cc1cc(C)c(N(C)CC(=O)Nc2nc(-c3ccccn3)c[nH]2)c(C)c1 [WN1316, 2-[mesityl(methyl)amino]-N-[4-(pyridin-2-yl)-1H-imidazol-2-yl] acetamide trihydrochloride]
DNA oxidation (8-OHdG) in lumbar spinal cord ([1]; 10 µg/kg, 21–22 weeks of age): remarkable reduction
IL-1β immunoreactivity in astrocytes ([1]; 10 µg/kg, 21–22 weeks of age): diminished dramatically
iNOS generation in lumbar spinal cord (Western blot) ([1]; 10 µg/kg, 21–22 weeks of age): decreased
large myelinated axons in the L5 ventral root ([1]; 10 µg/kg, 21–22 weeks of age): preservation of large myelinated axons
GFAP and Iba-1 immunoreactivity in lumbar spinal cord anterior horn ([1]; 10 µg/kg, 21–22 weeks of age, vs vehicle): significant reduction
protein levels of mutant SOD1 in NP-40-soluble and NP-40-insoluble/SDS-soluble fractions ([1]; 10 µg/kg, vs vehicle, 21–22 weeks of age): no significant differences
loss of ChAT-positive motor neurons compared with non-Tg littermates ([1]; 10 µg/kg/day, lumbar L4–L5, 21–22 weeks of age (vehicle 35.5%)): 15.2%
skeletal muscle integrity (quadriceps femoris) ([1]; 21–22 weeks of age): preserved the skeletal muscle integrity
water solubility (in words) [2]: highly soluble in water
total GSH level [3]: upregulation of total GSH level
NAIP protein level [4]: dose-dependent upregulation
protein complexing in serum [5]: complexes with protein
protein complexing in serum [6]: complexes with protein
